Data on 2 compounds can be found in patent US8916607B2, “Use of piperphentonamine or salts thereof in manufacture of medicaments for treating brain diseases” (Guangzhou Municipal Zhongwei Biotechnology Limited Company, priority 2009, dated 2014).

The subject of test [1] is cerebral hemorrhage in rats induced by collagenase. The experiment in a line: ICH model induced by collagenase: NO in brain tissue by nitrate reductase method. The test is classed as in vivo, Wistar rats. The text has this: Rats in each group were anesthetized by chloral hydrate, decollated rapidly and the brain take were taken out. The brain tissue around the hole was cut and procured, weighed precisely, and made into a 10% tissue homogenate using a glass homogenizer in an ice bath environment with physiological saline as homogenized medium, the supernatant of which was taken to be determined the content of NO by nitrate reductase method.

Test [2] relates to infectious cerebral edema of rats (pertussis bacteria liquid). The experiment in a line: infectious cerebral edema: brain water content and Evans blue content, combination with nimodipine. The format is in vivo, SD rats. To be noted: JBTA pretreatment 0.5 mg/kg iv, 2 times. The method, then: The model of infectious cerebral edema is same with example 4. It is Studied that piperphentonamine hydrochloride and a blocker for specificity L-type calcium ion channel nimodipine influence on the brain water content and Evans blue (EB) content of infectious cerebral edema, of which the purpose is to provide experimental and theoretical basis for clinical treatment.
Each group is further divided into three time group such as 30 min, 4 h and 24 h group.
Injecting intravenously nimodipine after injecting bacteria for 5 min (Nim group, body weight 0.25 mg/kg), 24 h nimodipine treatment group is repeatedly injected the same dose once per 8 h; nimodipine treatment group pretreated by piperphentonamine hydrochloride is intravenously infused piperphentonamine hydrochloride (0.5 mg/kg, 2 times in total) before experimenting for 48 h and 24 h, then treated with nimodipine after the pretreatment. The operation of physiological saline group being same as bacteria liquid group, is injected the same volume of physiological saline at the same time. 2% Evans blue (EB, 0.2 mL/100 g body weight) is injected from the vein of the sublingua after injecting bacteria or saline in 10 min. Each group of animal is executed by decollating after observing to the specified time, rapidly removed the brain, and remove the leptomeninges and coagulation block of the cortical surface, taking full-thickness brain tissue of the back ⅓ of left hemisphere of the brain (about 0.1˜0.2 g, including gray matter and white matter) as specimens, the water content in brain tissue and the Evans blue content are determined by the dry wet method, and brain tissue is examined by electron microscope.

Test [3] concerns cerebral hemorrhage in rats induced by collagenase. The experiment in a line: cerebral hemorrhage (ICH) model induced by collagenase: neurology score. The test is classed as in vivo, Wistar rats. Here is the method:
(§1) Animals are randomly divided into five groups: sham operation 24 h group; cerebral hemorrhage (Intracerebral Haemorrhage, ICH)+physiological saline group (model); ICH+piperphentonamine hydrochloride (JBTA, 2 mg/kg) group, called as high dose group (h); ICH+piperphentonamine hydrochloride (JBTA, 0.5 mg/kg) group, called as low dose group (1); ICH+nimodipine (Nim, 0.5 mg/kg) group. The last four groups are divided into 4 h, 8 h, 12 h, 24 h as four time subgroups respectively. Physiological saline solution, piperphentonamine hydrochloride and nimodipine are intravenously injected from rat tail before the ICH model is established for 30 minutes, once a day. Injecting slowly, the total amount of drug liquid is controlled in 1 ml/200 g body weight: physiological saline solution also being administered in 1 ml/200 g body weight. Each group has 7 Wistar rats.
The specific steps are as following: after the experimental rats are anesthetized by injecting chloral hydrate (350 mg/kg) in intraperitoneal, and being supinely immobilized in a stereotaxic instrument, and make the rat anterior fontanelle and posterior fontanelle in the same plane according to localization method reported by BAO Xinmin, etc. Being locally disinfected by iodine, incising in the midmost of scalp, scissoring the periosteum, exposing the anterior fontanelle, drilling a 1 mm diameter hole with thickness close to duramater in 3 mm left to the midline by number five needle. Inserting needle along the hole by the micro syringe fixed on a stereotaxic, the depth of needle insertion is 5.8 mm (i.e., the caudate nucleus position), slowly injecting collagenase VI 0.5 U. Injection time is 3 min, keeping for 5 min after injection, then pull the needle out, suturing the skin, and putting the rat into cage and feed. Inserting the needle and not injecting drugs in sham operation group, the remaining operations is the same as the above.
After animals wake up, scoring nerve function defect of each group immediately according to the grading classification standards of nerve defect reported by Bedersog (litter improved).
Choosing the animals with the score of 3 and more into the experiment, the animals are bred in different cages, eat and drink normally. Temperature is controlled in 20 to 25° C., score in 4 h, 8 h, 12 h, 24 h after establishment of the model.
(§2) Divide the animals randomly into five groups: sham operation (sham) 24 h group; ICH+normal saline group (model); ICH+piperphentonamine maleate (4 mg/kg) group, namely high dose group (h); ICH+piperphentonamine maleate (2 mg/kg) group, namely low dose group (1); ICH+nimodipine (0.5 mg/kg) group. The last four groups were divided into four time subgroup of 4 h, 8 h, 12 h and 24 h. Physiological solution, piperphentonamine maleate and nimodipine were injected intravenous from rat tail vein 30 minutes before the ICH model made, once a day. Inject slowly, the total amount of drug liquid was controlled in 1 ml/200 g body weight: normal saline was also administered in 1 ml/200 g body weight. Each group has seven Wistar rats.

Test [4] shares this test system. The test can be described thus: ICH model induced by collagenase: NE in brain tissue by ELISA. The format is in vivo, Wistar rats. The text has this:
Rats in each group were anesthetized by chloral hydrate, decollated rapidly and the brains were taken out. The brain tissue around the hole was cut and procured, weighed precisely, and made into a 10% tissue homogenate using a glass homogenizer in an ice bath environment with physiological saline as homogenized medium, the supernatant of which was taken to be determined the NE activity using ELISA method.
(In an ELISA, binding on a coated surface is turned into a signal by an enzyme label.)

The test system is the same in test [5]. The test can be described thus: ICH model induced by collagenase: brain water content (BWC). The format is in vivo, Wistar rats. The method, then:
as §1
Observing the influence of piperphentonamine hydrochloride on the brain water content of intracerebral hemorrhage in rats in 4 h, 8 h, 12 h, 24 h, the animals of the different groups is anesthetized by chloral hydrate at predetermined time point, and decollating and taking the brain rapidly, putting the brain tissue on a filter paper wetted by saline solution to prevent water evaporating. Removing the leptomeninges and blood, cutting and taking the front half portion of brain tissue centered by the hole for the insertion needle, weighing precisely (accurate to 0.1 mg). It is controlled in 5 min to take the brain to finish weigh. Then putting in 95° C. constant temperature oven for 24 h, weighing the dry weight. The brain water content is calculated according to Blliot formula: BWC=(wet weight−dry weight)/wet weight×100%.
as §2

Test [6] concerns cerebral hemorrhage of rats (autologous blood). The experiment in a line: cerebral hemorrhage by autologous blood into caudate nucleus: edema (dry-wet weight) and forelimb placement. The format is in vivo, SD rats. To be noted: local administering 3 h after hemorrhage. Here is the method:
Adult male SD rats were divided randomly into normal saline group, cerebral hemorrhage group and piperphentonamine maleate group. A model of cerebral hemorrhage was established by the methods of injecting 50 μl autologous blood into caudate nucleus of rats, wherein, the position of caudate nucleus was determined according to “the rat cerebral in stereotaxic atlas”: the injection position is at the point of front to anterior fontanelle of 0.2 mm, right to the sagittal suture of 3.0 mm, depth of 6.3 mm. The change of cerebral edema was observed by the dry-wet weight method; the behavior was observed by forelimb placement experiment. The cerebral hemorrhage group was only injected without medicine, with the treatment time of at 3 h after hemorrhage. The edema measurement time was in 1, 2, 3, 7, 14 days after hemorrhage, the behavioral observation time phase was in 1, 2, 3, 7, 14, 28 days after hemorrhage, each group of each time phase had 6 rats.

Test [7] has as its system cerebral hemorrhage in rats induced by collagenase. The test can be described thus: ICH model induced by collagenase: histopathological observation. The format is in vivo, Wistar rats. Here is the method:
Influence of piperphentonamine hydrochloride on pathological morphology of cerebral hemorrhage in rats was observed. Each group animals were selected randomly, anesthetized deeply by chloral hydrate at predetermined time point, decollated and the brain were taken out rapidly, then, the brain tissue slices with hematoma (about 5 mm) were cut, and put into 10% formaldehyde solution immediately, fixed for 24 h followed by dehydration by graded ethanol, transparentizing by xylene, immersing in paraffin, embedding, slicing (5 μm), HE staining and sealing. The pathological changes area and the pathological change of the adjacent brain tissue were observed by optical microscope.

Where [8] appears, read: 24 h, Nim 0.25 mg/kg iv once per 8 h.
[9] abbreviates: 0.5 mg/kg iv 30 min before ICH, 4 h.
[10] abbreviates: 0.5 mg/kg iv 30 min before ICH, 8 h.
Where [11] appears, read: 0.5 mg/kg iv 30 min before ICH, 8 h (example 12).
Setting [12] is: 0.5 mg/kg iv 30 min before ICH, 12 h.
[13] abbreviates: 0.5 mg/kg iv 30 min before ICH, 12 h (example 12).
The mark [14] stands for this setting: 0.5 mg/kg iv 30 min before ICH, 24 h.
Setting [15] is: 0.5 mg/kg iv 30 min before ICH, 24 h (example 12).
Setting [16] is: 2 mg/kg iv 30 min before ICH, 4 h (example 12).
[17] abbreviates: 2 mg/kg iv 30 min before ICH, 8 h (example 12).
The mark [18] stands for this setting: 2 mg/kg iv 30 min before ICH, 12 h (example 12).
[19] abbreviates: 2 mg/kg iv 30 min before ICH, 24 h (example 12).
Setting [20] is: 4 mg/kg iv 30 min before ICH, 8 h.
The mark [21] stands for this setting: 4 mg/kg iv 30 min before ICH, 12 h.
Setting [22] is: 4 mg/kg iv 30 min before ICH, 24 h.

Marks after values point to notes of the source that are not given here.

For the compound `COCCOC(=O)C1=C(C)NC(C)=C(C(=O)OC(C)C)C1c1cccc([N+](=O)[O-])c1` (stereo not drawn) [nimodipine, reference compound], in test [1] (0.5 mg/kg, ICH rat brain tissue), the NO is on record as 2.40 ± 0.05^Δ μmol/g pro. For the same compound, the “BWC(%)” value was 77.26 ± 0.34 % in test [2] (30 min, Nim 0.25 mg/kg iv); 77.15 ± 0.66 % in test [2] (4 h, Nim 0.25 mg/kg iv); 76.98 ± 0.50 % in test [2] (setting [8]). Further, the EB in test [2] (30 min, Nim 0.25 mg/kg iv) was found to be 2.0 ± 0.18 μg/g ww; in test [2] (4 h, Nim 0.25 mg/kg iv), 2.65 ± 0.44 μg/g ww; in test [2] (setting [8]), 2.00 ± 0.6 μg/g ww. The neurological score in test [3] (setting [9]) is 4.5 ± 0.87; in test [3] (0.5 mg/kg iv 30 min before ICH, 4 h (example 12)), 3.65 ± 0.8; in test [3] (setting [10]), 4.07 ± 1.14; in test [3] (setting [11]) it was 3.25 ± 0.91; in test [3] (setting [12]) it was 2.57 ± 1.14; in test [3] (setting [13]), 2.05 ± 0.91. For the same compound, the neurological score in test [3] (setting [14]) is 1.94 ± 0.74; in test [3] (setting [15]), 1.55 ± 0.59**^Δ. Besides, the NE in test [4] (0.5 mg/kg, ICH rat brain tissue homogenate) is recorded as 1.88 ± 0.035^a ng/ml. In addition, the “brain water content (%)” value in test [5] (setting [9]) is 79.31 ± 0.76 %; in test [5] (setting [10]), 79.95 ± 0.36^Δ** %; in test [5] (setting [12]) it was 81.35 ± 0.71^ΔΔ** %; in test [5] (setting [14]) it was 82.89 ± 0.68^ΔΔ** %. Besides, the brain water content in test [5] (0.5 mg/kg iv 30 min before ICH, 4 h (example 12), in %) is reported as 62.20 ± 0.59; in test [5] (setting [11]) it was 62.70 ±0.25^Δ**; in test [5] (setting [13]), 63.8 ± 0.56^ΔΔ**; in test [5] (setting [15]) it was 65.02 ± 0.54^ΔΔ**.
As for `CN(CCC(=O)/C=C/c1ccc(O)cc1)CCc1ccc2c(c1)OCO2.O=C(O)/C=C\C(=O)O` [piperphentonamine maleate], the NO in test [1] (2 mg/kg, ICH rat brain tissue (example 12)) is 2.16 ± 0.05^Δ μmol/g pro; in test [1] (4 mg/kg, ICH rat brain tissue), 1.48 ± 0.03^Δ μmol/g pro. Also, the neurological score in test [3] (setting [16]) came to 3.61 ± 0.7; in test [3] (setting [17]), 3.43 ± 0.82; in test [3] (setting [18]), 2.92 ± 0.95; in test [3] (setting [19]), 2.57 ± 1.28; in test [3] (4 mg/kg iv 30 min before ICH, 4 h), 3.25 ± 0.59; in test [3] (setting [20]), 3.08 ± 0.95. The figures for the neurological score in test [3] (setting [21]) and in test [3] (setting [22]) were 1.88 ± 0.64*^Δ and 1.37 ± 0.46**^ΔΔ, respectively. Further, in test [6], the “cerebral edema after cerebral hemorrhage” value is on record as “could obviously relieve cerebral edema after cerebral hemorrhage”. In addition, the “neural function defect after cerebral hemorrhage (forelimb placement)” value in test [6] is given as “improve the neural function defect after cerebral hemorrhage”. Further, the histopathological observation result in test [7] (large dose (4 mg/kg) pretreatment) was “obviously reduce tissue edema and inflammatory cell infiltration after cerebral hemorrhage”; in test [7] (small dose maleate (2 mg/kg) or nimodipine (0.5 mg/kg) in advance) it was “could ease the pathological changes above-mentioned in different levels”. For the same compound, the NE is recorded as 2.37 ± 0.07^ΔΔ ng/ml in test [4] (high dose group (h), 4 mg/kg, ICH rat brain tissue) and 2.78 ± 0.05^ΔΔ ng/ml in test [4] (low dose group (l), 2 mg/kg, ICH rat brain tissue). Also, the brain water content in test [5] (setting [16]) is reported as 62.66 ± 0.66^Δ; in test [5] (setting [17]) it was 63.88 ± 0.55^ΔΔ; in test [5] (setting [18]), 64.86 ± 0.59^ΔΔ; in test [5] (setting [19]) it was 66.33 ± 0.5^ΔΔ; in test [5] (4 mg/kg iv 30 min before ICH, 4 h, in %), 62.19 ± 0.54; in test [5] (setting [20]) it was 62.53 ± 0.42^Δ**. For the same compound, the figures for the brain water content in test [5] (setting [21]) and in test [5] (setting [22]) were 63.38 ± 0.15^ΔΔ** and 64.62 ± 0.58^ΔΔ**, respectively.
